Assay results reported in ChEMBL document CHEMBL3988442, “University of Dundee, Small-Polar-MMV Screening Library” (2021).
Several values for one entry are separate records, joined by “and”; a condition that tells them apart may be missing. Identical values can stand only once.

Columns and labels:
[1] = target: T1, Coenzyme A biosynthesis bifunctional protein CoaBC (Mycobacterium tuberculosis (strain ATCC 25618 / H37Rv), UniProt P9WNZ1); assay: Biomol Green assay for MtCoaBC inhibitor, OD650 read; format: functional
T1 sequence (P9WNZ1 whole entry): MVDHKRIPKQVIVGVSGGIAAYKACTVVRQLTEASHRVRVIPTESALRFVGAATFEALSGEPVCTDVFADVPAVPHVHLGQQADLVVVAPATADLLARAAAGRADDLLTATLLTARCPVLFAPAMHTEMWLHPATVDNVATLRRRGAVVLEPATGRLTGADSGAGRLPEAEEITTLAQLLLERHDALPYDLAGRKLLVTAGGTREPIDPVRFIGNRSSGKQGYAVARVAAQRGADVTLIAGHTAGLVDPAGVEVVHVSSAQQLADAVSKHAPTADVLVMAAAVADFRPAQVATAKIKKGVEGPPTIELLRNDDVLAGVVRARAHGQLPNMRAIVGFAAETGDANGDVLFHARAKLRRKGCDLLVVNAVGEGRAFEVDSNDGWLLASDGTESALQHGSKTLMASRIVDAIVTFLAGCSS

Leishmania donovani = assay: Leishmania intramacrophage assay; format: functional, organism-based; details: for IC50: Leishmania donovani
Schistosoma mansoni = assay: High throughput screening of compounds against Schistosoma mansoni motility; format: functional; parameters: dose or concentration left out as unconfirmed
Histidine--tRNA ligase = target: T2, Histidine--tRNA ligase (Leishmania infantum, UniProt A4I591); assay: Leishmania infantum Histidine tRNA synthetase (LdHisRS); format: functional
T2 sequence (A4I591 whole entry): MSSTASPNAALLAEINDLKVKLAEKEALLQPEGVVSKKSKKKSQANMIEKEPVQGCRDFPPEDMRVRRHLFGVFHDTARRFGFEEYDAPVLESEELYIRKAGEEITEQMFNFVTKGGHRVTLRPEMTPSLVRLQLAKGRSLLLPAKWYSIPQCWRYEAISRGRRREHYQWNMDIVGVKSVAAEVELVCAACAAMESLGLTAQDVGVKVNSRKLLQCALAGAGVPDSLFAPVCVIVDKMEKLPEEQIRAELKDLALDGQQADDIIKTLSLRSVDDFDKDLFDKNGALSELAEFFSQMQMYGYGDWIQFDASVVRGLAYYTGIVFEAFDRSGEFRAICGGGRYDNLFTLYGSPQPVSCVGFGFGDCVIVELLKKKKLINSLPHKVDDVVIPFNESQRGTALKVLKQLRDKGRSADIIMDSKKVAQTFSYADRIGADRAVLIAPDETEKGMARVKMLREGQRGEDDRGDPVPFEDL

Plasmodium falciparum = assay: Calibr Malaria Delayed Death Assay SOP; format: functional, organism-based; details: for IC50: Plasmodium falciparum
[2] = microbe, parasite or virus in culture; details: Mycobacterium tuberculosis, 96 h, read-out: pIC50 (converted)
[3] = microbe, parasite or virus in culture; details: Mycobacterium tuberculosis, 72 h, read-out: pIC50 (converted)
[4] = In vitro enzyme assay to detect hydrolysis of chlorophenol red-beta-D-[…] directly proportional to the number of Toxoplasma stably expressing beta-galactosidase; format: functional, organism-based, Toxoplasma gondii; details: for IC50: Toxoplasma gondii
ClpP1P2 = ClpP1P2 (Mycobacterium tuberculosis (strain ATCC 25618 / H37Rv), UniProt P9WPC3+P9WPC5); assay: in vitro assay to detect presence of AMC directly proportional to the activity of ClpP1P2. GHDDI collaboration.; format: functional
Tryptophan--tRNA ligase = Tryptophan--tRNA ligase (Mycobacterium tuberculosis (strain ATCC 25618 / H37Rv), UniProt P9WFT3); assay: Biochemical assay for Mt-TrpRS; format: functional

COCCN(Cc1cnn(C)c1)CC1CCOC1 (centres undefined)
IC50 [1]: > 30.2 µM

Cc1[nH]ncc1C(=O)NCC(CO)Cc1ccc(Cl)cc1 (centres undefined)
IC50 [1]: > 30.2 µM

CN1CCC(c2cccc(C(=O)N(C)C)n2)CC1
IC50 [1]: > 30.2 µM

CCCN(Cc1ccccc1C)C(CC)CO (centres undefined)
IC50 [1]: > 30.2 µM

Cc1cccc(CN(C(=O)CCn2cncn2)C(C)C)c1
IC50 [1]: > 30.2 µM

COc1ccc(C2CN(c3cc(C)ncn3)CCN2C(C)=O)cc1 (centres undefined)
IC50 [1]: > 30.2 µM

CCc1nccn1-c1nccnc1C1CCN(C(=O)COC)CC1
IC50 [1]: > 30.2 µM

O=C(NCC(O)c1ccsc1)c1sccc1OC(F)F (centres undefined)
IC50 [1]: > 30.2 µM

C[C@H]1CN2C[C@H](O)CC2CN1Cc1ccc2nccnc2c1 (some centres undefined)
IC50 [1]: > 30.2 µM

CC(C)NC(=O)[C@@H]1C[C@H](N)CN1C(=O)C1(c2ccc(Cl)cc2)CCC1
IC50 [1]: > 30.2 µM

Cc1cnn(CC2CCCN2C(=O)c2cccc(S(C)(=O)=O)c2)c1 (centres undefined)
IC50 [1]: > 30.2 µM

CC(C)N1CCC(NC(=O)c2cn(-c3ccc(F)cc3)nn2)C1 (centres undefined)
IC50 [1]: > 30.2 µM

Cc1nc2c(C(=O)N[C@H]3C[C@H]4CN(C)CCN4C3)cccc2[nH]1
IC50 [1]: > 30.2 µM

COCCN1CCN(Cc2cnc(C3(C)CCCCO3)nc2)CC1 (centres undefined)
IC50 [1]: > 50.1 µM

Cc1cc(N2CCCCCC2)n2nc(C)c(C)c2n1
IC50 (Leishmania donovani): > 50.1 µM
Percent Effect (Schistosoma mansoni): -21.59%

CN(C)C(C(=O)NCc1cc(C(C)(C)C)n[nH]1)c1ccc(F)cc1 (centres undefined)
IC50 [1]: > 30.2 µM

COCCNC(=O)[C@H]1C[C@@H]2CCN(c3ccccc3)C[C@H]2O1
IC50 [1]: > 30.2 µM

CC(NCCCN1CCCC1=O)c1cc(Br)ccc1F (centres undefined)
IC50 [1]: > 30.2 µM

CSCc1noc(CNC(=O)C2CCN(C(=O)C3CC3)CC2)n1
IC50 [1]: > 30.2 µM

CC(C)NS(=O)(=O)c1cc(C(=O)O)cc(-n2cc3c(n2)CCC3)c1
IC50 [1]: > 50.1 µM

Cc1cnn(CC2CCCN2Cc2nnc(C)o2)c1 (centres undefined)
IC50 [1]: > 30.2 µM

Cn1cc(N2C(=O)CC[C@@H]3[C@H]2CCN3Cc2nccs2)cn1
IC50 [1]: > 30.2 µM

CCOC(=O)N1CCN(c2nc(CCN)nc3sc(C)c(C)c23)CC1
IC50 (Leishmania donovani): > 50.1 µM
IC50 (Histidine--tRNA ligase): 21.8 µM and 19.6 µM
pIC50 (Plasmodium falciparum): 5.898
IC50 (Plasmodium falciparum): 1.12 µM

COCCN(Cc1cnn(C)c1)CC1CCN(C(C)C)CC1
IC50 [1]: > 30.2 µM

CN1C(=O)C2(CCN(c3nccc4occc34)CC2)c2ccccc21
IC50 [1]: > 30.2 µM

CC(C)N1CC2(CCC1=O)CCN(c1ccnc3ccccc13)CC2
IC50 [1]: > 30.2 µM

Cc1nc(C2CCCN(C(=O)c3c(C)nn4cccnc34)C2)no1 (centres undefined)
IC50 [1]: > 30.2 µM

Nc1nccnc1CC1CCCN(Cc2c[nH]c3ccccc23)C1 (centres undefined)
IC50 [1]: > 30.2 µM

CN(C)C(=O)CN1CCCC2(CCN(c3ccsc3)C2=O)C1 (centres undefined)
IC50 [1]: > 30.2 µM

CN1CCN(CC(NCc2ccc(F)c(F)c2)c2ccccc2)CC1 (centres undefined)
IC50 (Leishmania donovani): 11.3 µM
pIC50 (Plasmodium falciparum): 6.278
IC50 (Plasmodium falciparum): 0.618 µM
IC50 [2]: > 50.1 µM
IC50 [3]: 17.1 µM

COc1ccc(C2=Nn3c(CCN)nnc3-c3ccccc3C2)cc1
pIC50 (Leishmania donovani): 4.676
IC50 (Leishmania donovani): 17.9 µM
IC50 (Histidine--tRNA ligase): > 100 µM

c1ccc(C2=NOC3(CCN(Cc4c[nH]c5ccccc45)CC3)C2)cc1
pIC50 (Leishmania donovani): 4.869
IC50 (Leishmania donovani): 18.3 µM
pIC50 [4]: 5.08
IC50 [4]: 6.84 µM

Clc1ccccc1C1(c2ccnc(C3CC3)n2)CCNCC1
IC50 (Leishmania donovani): 23.9 µM
pIC50 [4]: 4.703
IC50 [4]: 15.4 µM
pIC50 (Plasmodium falciparum): 6.224
IC50 (Plasmodium falciparum): 0.536 µM

Clc1ccccc1C1(c2ccnc(C3CCCC3)n2)CCNCC1
IC50 (Leishmania donovani): 6.68 µM
pIC50 [4]: 5.147
IC50 [4]: 13 µM
pIC50 (Plasmodium falciparum): 6.419
IC50 (Plasmodium falciparum): 0.399 µM

CN(C)S(=O)(=O)c1ccc(-c2nc(C#N)c(NC3CCCCC3)o2)o1
IC50 (Leishmania donovani): > 50.1 µM
IC50 (ClpP1P2): > 100 µM

Cc1nc(CCN)cc(N2CCOc3ccc(Cl)cc3C2)n1
pIC50 (Leishmania donovani): 4.773
IC50 (Leishmania donovani): 11.2 µM
IC50 (Histidine--tRNA ligase): 41.7 µM and 34.2 µM

Cc1nc(CCN)cc(N2CCC(O)(c3ccc(Cl)cc3)CC2)n1
IC50 (Leishmania donovani): > 50.1 µM
IC50 (Histidine--tRNA ligase): 46.4 µM and 42.8 µM

Cc1cc(N2CCC(N(C)C(=O)c3ccccc3)CC2)nc(C)n1
IC50 (Leishmania donovani): > 50.1 µM
Percent Effect (Schistosoma mansoni): -7.781%

CC(C)CNc1nc2c(cc1C(=O)NCC1CC1)CCNCC2
pIC50 (Leishmania donovani): 4.725
IC50 (Leishmania donovani): 17.7 µM
IC50 (ClpP1P2): > 100 µM

Cc1ccc(-c2cc(CNc3ncnc4c3CCNCC4)no2)cc1
pIC50 (Leishmania donovani): 4.865
IC50 (Leishmania donovani): 8.55 µM
IC50 [4]: 9.58 µM

N[C@@H]1CCC[C@@H](Oc2ccc(F)cc2Oc2ccccc2)[C@@H]1O
pIC50 (Leishmania donovani): 4.886
IC50 (Leishmania donovani): 11.2 µM
IC50 (Tryptophan--tRNA ligase): > 195 µM
pIC50 (Plasmodium falciparum): 6.155
IC50 (Plasmodium falciparum): 0.602 µM

CCOc1c(Cl)cc(Cl)cc1CNCCCn1ccnc1
IC50 (Leishmania donovani): 16 µM
IC50 (Histidine--tRNA ligase): > 100 µM

CC(C)(C)c1nccc(C2(c3ccccc3Cl)CCNCC2)n1
IC50 (Leishmania donovani): 7.19 µM
pIC50 [4]: 4.939 and 5.272
pIC50 (Plasmodium falciparum): 6.385
IC50 (Plasmodium falciparum): 0.667 µM

Nc1nccc(N2CCC(c3cc(Cc4ccccc4)n[nH]3)CC2)n1
pIC50 (Leishmania donovani): 4.363
IC50 (Leishmania donovani): 42 µM
pIC50 [4]: 4.837
IC50 [4]: 20.2 µM

CCN(CC)CCNC(=O)c1ccc(-n2ccc3ccccc32)s1
IC50 (Leishmania donovani): 11.2 µM
IC50 [4]: 7.53 µM

O=C(NCCCN1CCCCC1)c1ccc(-n2ccc3ccccc32)s1
pIC50 (Leishmania donovani): 5.277
IC50 (Leishmania donovani): 7.13 µM
IC50 [4]: 6.04 µM
IC50 [2]: > 50.1 µM
IC50 [3]: 28.1 µM

CCN(CCN(C)C)c1nc(CCN)nc2sc(C)c(C)c12
IC50 (Leishmania donovani): > 50.1 µM
IC50 (Histidine--tRNA ligase): 49.3 µM and 36.3 µM
pIC50 (Plasmodium falciparum): 5.974
IC50 (Plasmodium falciparum): 1.21 µM

O=C(C1CNCCO1)N1CCCC(c2ccccc2)(c2ccccc2)C1 (centres undefined)
pIC50 (Leishmania donovani): 4.781
IC50 (Leishmania donovani): 11.6 µM
pIC50 (Plasmodium falciparum): 6.124
IC50 (Plasmodium falciparum): 0.975 µM

CC(O)CN1CCC(CNCc2ccc(OC(F)(F)F)cc2)CC1 (centres undefined)
pIC50 (Leishmania donovani): 5.001
IC50 (Leishmania donovani): 9.27 µM
pIC50 (Plasmodium falciparum): 5.989
IC50 (Plasmodium falciparum): 0.959 µM

Cc1c(C(=O)N2CCC(N3CCCCC3)CC2)n(C)c2ccc(Cl)cc12
pIC50 (Leishmania donovani): 4.818
IC50 (Leishmania donovani): 13.5 µM
pIC50 (Plasmodium falciparum): 6.009
IC50 (Plasmodium falciparum): 1.07 µM

Cc1nccn1CCCn1cncc1-c1ccc2c(c1)CC(C)N2C (centres undefined)
IC50 (Leishmania donovani): > 50.1 µM
IC50 (Histidine--tRNA ligase): 20.5 µM and 22.8 µM

C1Cc2nc(CCNc3nc(C4CC4)nc4c3CCNCC4)sc2C1
pIC50 (Leishmania donovani): 5.261 and 5.322
IC50 (Leishmania donovani): 5.69 µM
IC50 [4]: 12.6 µM

N[C@@H]1CCC[C@@H](Oc2ccc(F)cc2Oc2cccc(F)c2)[C@@H]1O
IC50 (Leishmania donovani): > 50.1 µM
IC50 (Tryptophan--tRNA ligase): > 195 µM

CC(C)c1nccc(C2(c3ccccc3Cl)CCNCC2)n1
IC50 (Leishmania donovani): 26.3 µM
pIC50 (Plasmodium falciparum): 6.087
IC50 (Plasmodium falciparum): 0.789 µM

CCSc1cc(C(=O)NCc2ccccc2O)ccn1
IC50 (Leishmania donovani): > 50.1 µM
Percent Effect (Schistosoma mansoni): -44.04%

COc1cccc(CNC(CN2CCN(C)CC2)c2ccccc2)c1 (centres undefined)
pIC50 (Leishmania donovani): 4.672
IC50 (Leishmania donovani): 22 µM
pIC50 (Plasmodium falciparum): 6.596
IC50 (Plasmodium falciparum): 0.308 µM
